Results on 7 compounds are retold here after ChEMBL document CHEMBL1201862, “PubChem BioAssay data set” (2004).

What all share (experiment): DTP human tumour cell line panel, 48 h
In assay [1] the test system is DU-145.
For assay [2], the system named is SF-539.
The test system of assay [3] is MDA-MB-231.
Assay [4] concerns NCI-H23.
For assay [5], the system named is SF-295.
Assay [6] concerns LOX IMVI.
Assay [7] relates to Malme-3M.
Assay [8] deals with OVCAR-4.
Assay [9] concerns SK-MEL-28.
Assay [10] concerns HCC 2998.
Assay [11] has as its system HOP-62.
Assay [12] has as its system MDA-N.
In assay [13] the test system is SK-OV-3.
For assay [14], the system named is MOLT-4.
Assay [15] has as its system OVCAR-8.
For assay [16], the system named is A498.
The subject of assay [17] is HOP-92.
In assay [18] the test system is RPMI-8226.
In assay [19] the test system is TK-10.
Assay [20] concerns SN12C.

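Exposure lasted 48 hours, with cells grown in 96-well plates and compounds tested at five concentrations. GI50 is the concentration that inhibits growth by half.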 The source made the active and inactive calls. No stated cut-off is given here; in the data, active = GI50 up to about 1.1 µM and inactive = higher.

Turning to `O=C(O)Cn1cnc2c(O)nc(Nc3ccccc3)nc21`, the GI50 in assay [1], in assay [2], in assay [3], in assay [4], in assay [5] and in assay [6] was > 100 µM (inactive) each time. For the same compound, the GI50 in assay [7], in assay [8], in assay [9], in assay [10], in [11] and in assay [12] was > 100 µM (inactive) in each case. Also, the GI50 in assay [13], in [14], in assay [15], in [16], in [17] and in [18] was > 100 µM (inactive) throughout. For the same compound, the GI50 in assay [19] and in assay [20] was > 100 µM (inactive) throughout.

On to `O=C1C=CC2(O[C@H](c3ccccc3)[C@@H](c3ccccc3)O2)[C@H](Sc2ccccc2O)C1`, for which the GI50 (as a rule, the concentration giving 50% growth inhibition) in assay [1] is 1.22 µM (inactive); in assay [2], 0.757 µM (active); in assay [3], 0.839 µM (active); in assay [4], 0.708 µM (active); in assay [5] it was 6.43 µM (inactive); in assay [6], 0.163 µM (active). The GI50 in [7] was 0.294 µM (active); in assay [8] it was 1.08 µM (active); in assay [9], 1.36 µM (inactive); in assay [10], 0.454 µM (active); in assay [11], 1.85 µM (inactive); in assay [12], 0.316 µM (active). The GI50 is 3.27 µM (inactive) in assay [13]; 0.0286 µM (active) in [14]; 0.105 µM (active) in assay [15]; 2.24 µM (inactive) in [16]; 0.52 µM (active) in [17]; 0.0424 µM (active) in [18]. The results for the 50% growth inhibitory concentration (GI50) in assay [19] and in [20] were 0.29 µM (active) and 0.204 µM (active), respectively.

For `CC[C@@]1(OC(=O)C(N)CCC(=O)O)C(=O)OCc2c1cc1n(c2=O)Cc2cc3ccccc3nc2-1` (some centres undefined), the GI50 in [1] was < 0.01 µM (active); in [2] it was 0.018 µM (active); in [3] it was 1.63 µM (inactive); in assay [4] it was 0.0345 µM (active); in assay [5], 0.0213 µM (active); in assay [6], 0.0196 µM (active). For the same compound, the concentration for 50% growth inhibition (GI50) was 0.266 µM (active) in assay [7]; 1.24 µM (inactive) in [8]; 1.35 µM (inactive) in [9]; 0.461 µM (active) in assay [10]; < 0.0124 µM (active) in [11]; 0.314 µM (active) in assay [12]. The concentration for 50% growth inhibition (GI50) was 0.0553 µM (active) in assay [13]; 0.0106 µM (active) in assay [14]; 0.117 µM (active) in assay [15]; 0.187 µM (active) in assay [16]; 0.615 µM (active) in [17]; 0.148 µM (active) in [18]. For the same compound, the GI50 in assay [19] is 4.33 µM (inactive); in [20], 0.0244 µM (active).

With `CCCCCCCCCCCC(=O)NCc1ccc(OC(=O)CCCCCCCCCCC)c(OC)c1`, the GI50 is > 79.3 µM (inactive) in assay [1]; 3.56 µM (inactive) in [2]; > 100 µM (inactive) in [3]; 32.8 µM (inactive) in assay [4]; > 66.4 µM (inactive) in assay [5]; 5.42 µM (inactive) in assay [6]. The GI50 in [7] was > 100 µM (inactive); in assay [8] it was 34.2 µM (inactive); in assay [9], > 81.7 µM (inactive); in assay [10], > 64.6 µM (inactive); in assay [11], > 100 µM (inactive); in assay [12], 61.4 µM (inactive). Besides, the GI50 in assay [13] is > 100 µM (inactive); in assay [14], 2.75 µM (inactive); in assay [15], 67.9 µM (inactive); in assay [16], > 100 µM (inactive); in [17] it was > 100 µM (inactive); in [18], 33.5 µM (inactive). Moreover, the GI50 is > 100 µM (inactive) in assay [19] and > 88.3 µM (inactive) in assay [20].

Regarding `CN(C)c1ccc(/C=C(\NC(=O)c2ccccc2)C(=O)NC(Cc2c[nH]c3ccccc23)C(=O)O)cc1` (centres undefined), the GI50 in assay [1], in assay [2], in [3], in [4], in assay [5] and in assay [6] was > 100 µM (inactive) each time. The GI50 in [7] is > 100 µM (inactive); in assay [8], > 100 µM (inactive); in assay [9], > 100 µM (inactive); in assay [10], > 100 µM (inactive); in assay [11] it was 34.4 µM (inactive); in assay [12], > 100 µM (inactive). The GI50 in [13], in assay [14], in assay [15], in assay [16], in [17] and in assay [18] was > 100 µM (inactive) throughout. The GI50 in assay [19] and in assay [20] was > 100 µM (inactive) each time.

As for `NCCCCCCn1c(-c2ccc(Br)cc2)cs/c1=N\c1ccccc1`, the GI50 was 13.5 µM (inactive) in assay [1]; 13.1 µM (inactive) in [2]; 14.4 µM (inactive) in assay [3]; 14.7 µM (inactive) in [4]; 16 µM (inactive) in assay [5]; 2.53 µM (inactive) in [6]. In addition, the GI50 in assay [7] was 9.35 µM (inactive); in assay [8] it was 12.7 µM (inactive); in assay [9] it was 12.7 µM (inactive); in [10], 3.75 µM (inactive); in assay [11], 16.8 µM (inactive); in assay [12], 6.28 µM (inactive). Moreover, the GI50 in assay [13] is 17.2 µM (inactive); in [14], 3.83 µM (inactive); in [15], 11.9 µM (inactive); in assay [16], 17.9 µM (inactive); in assay [17] it was 12.7 µM (inactive); in assay [18], 3.33 µM (inactive). The GI50 in [19] is 13.6 µM (inactive); in assay [20], 13.7 µM (inactive).

`COc1ccc2oc(S(=O)(=O)N3CC(CCl)c4ccc([N+](=O)[O-])cc43)cc2c1` (centres undefined): the GI50 is 0.0883 µM (active) in assay [1]; 0.0607 µM (active) in assay [2]; 0.29 µM (active) in [3]; 0.36 µM (active) in assay [4]; 0.0374 µM (active) in [5]; 0.155 µM (active) in assay [6]. Also, the concentration for 50% growth inhibition (GI50) in [7] is 0.767 µM (active); in assay [8] it was 6.28 µM (inactive); in assay [10], 0.256 µM (active); in assay [11], 0.0381 µM (active); in assay [12], 0.0301 µM (active); in [13], 0.105 µM (active). For the same compound, the concentration for 50% growth inhibition (GI50) was 0.223 µM (active) in assay [14]; 0.22 µM (active) in assay [15]; 0.0746 µM (active) in assay [16]; 0.533 µM (active) in assay [17]; 0.107 µM (active) in [18]; 15.1 µM (inactive) in assay [19]. Further, the 50% growth inhibitory concentration (GI50) in assay [20] is 0.179 µM (active).
